According to patent US20130131073A1, “FUSED-IMIDAZOYL COMPOUNDS USEFUL AS ANTIMICROBIAL AGENTS” (priority 2010, published 2013):
≈ marks a conversion by molar mass, not a printed value.

Each compound was assayed on Staphylococcus aureus ATCC29213 (assay: Broth microdilution susceptibility testing (MIC determination)). Settings: Mueller Hinton broth, overnight incubation at 35° C., lowest concentration preventing visible growth, read-out: MIC Staph. aureus ATCC29213.
Format: cell-based
Method: Susceptibility testing (MIC determinations) was performed using the standard broth microdilution methodology precisely as described in the Clinical Laboratory Standards Institute Document M7-A6; Methods for Dilution Antimicrobial Susceptibility Tests for Bacteria That Grow Aerobically; Approved Standard- Sixth Edition (ISBN 1-56238-486-4), CLSI, 940 West Valley Road, Suite 1400, Wayne, Pa. 19087-1898 USA. To perform the test, a series of 0.1 ml media in a 96-well plate is prepared with Mueller Hinton broth to which various concentrations of the test compound are added. The media are then inoculated with a standardized suspension of the test organism, Staphylococcus aureus ATCC29213. After overnight incubation at 35° C., the tests are examined and the minimal inhibitory concentration (MIC) is determined. MIC is defined as the lowest concentration of an antimicrobial agent that prevents visible growth of a microorganism in the broth microdilution susceptibility test

In order of rising MIC:
1. CN(C)c1ccc(-c2nc3cnccn3c2NCC(=O)N2CCN(c3c(Cl)cncc3Cl)CC2)cc1 [compound 31]  0.08 µg/mL (≈ 0.152 µM)
2. O=C(CNc1c(-c2ccc(OC(F)(F)F)cc2)nc2cnccn12)N1CCN(c2c(Cl)cncc2Cl)CC1 [compound 274]  0.08 µg/mL (≈ 0.141 µM)
3. CC(=O)N1CCN(C(=O)C(C)Nc2c(-c3ccc(N(C)C)cc3)nc3cnccn23)CC1 (centres unmarked) [compound 102]  1.25 µg/mL (≈ 2.87 µM)
4. O=C(CNc1c(-c2ccc(OC(F)(F)F)cc2)nc2cnccn12)N1CCN(c2ccncc2)CC1 [compound 269]  1.25 µg/mL (≈ 2.51 µM)
5. Cc1cccc(C)c1N1CCN(C(=O)CNc2c(-c3ccc(N(C)C)cc3)nc3cnccn23)CC1 [compound 26]  2 µg/mL (≈ 4.14 µM)
6. O=C(CNc1c(-c2ccc(OC(F)(F)F)cc2)nc2cnccn12)N1CCN(CCC2CCCCC2)CC1 [compound 277]  2.5 µg/mL (≈ 4.71 µM)
7. CC(Nc1c(-c2ccc(OC(F)(F)F)cc2)nc2cnccn12)C(=O)N1CCN(C)CC1 (centres unmarked) [compound 184]  5 µg/mL (≈ 11.1 µM)
8. C=CCN1CCN(C(=O)C(C)Nc2c(-c3ccc(OC(F)(F)F)cc3)nc3cnccn23)CC1 (centres unmarked) [compound 189]  5 µg/mL (≈ 10.5 µM)
9. COCCCN1CCN(C(=O)CNc2c(-c3ccc(OC(F)(F)F)cc3)nc3cnccn23)CC1 [compound 281]  5 µg/mL (≈ 10.2 µM)
10. O=C(CNc1c(-c2ccc(OC(F)(F)F)cc2)nc2cnccn12)N1CCN(c2nc(-c3ccccc3)ns2)CC1 [compound 282]  5 µg/mL (≈ 8.61 µM)
11. CN1CCN(C(=O)CNc2c(-c3ccc(OC(F)(F)F)cc3)nc3cnccn23)CC1 [compound 268]  10 µg/mL (≈ 23 µM)
12. O=C(CNc1c(-c2ccc(OC(F)(F)F)cc2)nc2cnccn12)N1CCN(c2ccccc2Cl)CC1 [compound 270]  10 µg/mL (≈ 18.8 µM)
13. O=C(CNc1c(-c2ccc(OC(F)(F)F)cc2)nc2cnccn12)N1CCN(C(=O)OCc2ccccc2)CC1 [compound 275]  10 µg/mL (≈ 18 µM)
14. Cc1cccc(N2CCN(C(=O)CNc3c(-c4ccc(OC(F)(F)F)cc4)nc4cnccn34)CC2)c1C [compound 276]  10 µg/mL (≈ 19.1 µM)
15. COc1cc(OC)nc(CN2CCN(C(=O)CNc3c(-c4ccc(OC(F)(F)F)cc4)nc4cnccn34)CC2)n1 [compound 280]  10 µg/mL (≈ 17.5 µM)
16. CC(c1ccccc1)N1CCN(C(=O)CNc2c(-c3ccc(OC(F)(F)F)cc3)nc3cnccn23)CC1 (centres unmarked) [compound 295]  10 µg/mL (≈ 19.1 µM)
17. Cc1cccc(N2CCN(C(=O)C(C)Nc3c(-c4ccc(OC(F)(F)F)cc4)nc4cnccn34)CC2C)c1 (centres unmarked) [compound 318]  10 µg/mL (≈ 18.6 µM)
